Measured values as given in patent US20210030895A1, “RESIN COMPOSITION AND MOLDED ARTICLE” (DIC Corporation, priority 2013, published 2021).
“And” between values parts separate entries of the source, which are not always exact repeats. Equal values may be shown once. “Also recorded” adds a separate entry of the source. Read-outs that look alike come from different tables or passages of the source.

Legend:
Format in all cases: physicochemical
[1] = Eluting test of the material from the material-containing film (ISO10993-10 Annex E, methanol extraction)
Description: In Example 1, the operation was performed in the same manner as in Example 1 except that 100 mg of the near infrared fluorescent material A was used, a material-containing TPU film having a thickness of about 300 μm and having a material concentration of the near infrared fluorescent material A of 0.1% by mass was prepared.
An Eluting test of the obtained material-containing TPU film was performed. The eluting operation of the film was performed as follows according to ISO10993-10AnnexE. 5 g of the material-containing TPU film was cut into a size of 2 cm×2 cm, and then was put into a 300 mL conical flask with 100 mL of methanol, followed by shaking at 25° C. of room temperature for 8 hours. Next, the methanol was separated by filtration once, and the resultant product was extracted two times with the same amount of methanol by using the same film fine piece. The methanol extracted liquid obtained by the total three times of operations was concentrated by an evaporator, and the residues were melted with 5 mL of dichloromethane to obtain a test liquid.
The absorption spectrum and the light emission spectrum of the obtained test liquid were measured. As a result, the absorption and the fluorescent derived from the near infrared fluorescent material A could not be confirmed. […] Since the near infrared fluorescent material A was hardly eluted, a medical implant having high safeness which is molded using the resin composition according to the present invention was obtained.

[2] = Absorption spectrum of material-containing resin film (spectrophotometer UV3600); details: PP film, material 10 mg per 100 g PP (Example 2)
[3] = Emission (fluorescence) spectrum and fluorescence quantum yield of material-containing resin film (Quantaurus-QY C11347)
[4] = Absorption spectrum of material-containing resin film (spectrophotometer UV3600)
Description: TPU pellets (Tecoflex EG85A, manufactured by Lubrizol Corp.) (100 g) and a near infrared fluorescent material A (5 mg) synthesized in Preparation Example 1 were mixed, and the mixture was attached to the pellet surfaces.
Next, the pellets were put into Labo Plastomill, and melt-kneaded (kneading) at a set temperature of 190° C. for 10 minutes. Thereafter, the kneaded material-containing resin was taken out, and made to be a film.
The film was obtained in the following manner. First, the material-containing resin was heated for 5 minutes while being sandwiched between iron plates heated to 200° C., and pressed at […] while the steel plates were cooled. […]

[5] = TPU film, material 0.1% by mass, about 300 μm, methanol, 25° C., 8 hours, three extractions
[6] = methanol extract of TPU film, residues in dichloromethane
[7] = PP film, material 10 mg per 100 g PP (Example 2)
[8] = TPU film, material 5 mg per 100 g TPU (0.005% by mass), melt-kneaded at 190° C.

Presence or absence of material elution [1, 5] | SMILES | Presence or absence of material elution [1] | Fluorescence peak [3] | Quantum yield [3] | Absorption peak [4] | other results
eluted; also recorded: Presence | CCN1/C(=C\C=C2/CCC(/C=C/c3sc4ccc(Cl)cc4[n+]3CC)=C2N(c2ccccc2)c2ccccc2)Sc2ccc(Cl)cc21 [IR-140, reference compound] | – | – | – | – | Presence or absence of material elution ([1]; TPU film, material 0.1% by mass, about 300 μm, methanol, 25° C., 8 hours, three extractions, listed as Comparative Example 1): elutes; light emission peak wavelength of the fluorescence spectrum in the test liquid of the eluting test [1, 6]: 846 nm; peak wavelength of the absorption spectrum in the test liquid of the eluting test [1, 6]: 812 nm
hardly eluted; also recorded: Absence | COc1ccc(-c2cc3c(o2)=CC2=C(C(F)(F)F)c4cc5oc(-c6ccc(OC)cc6)cc5n4[B-](F)(F)[N+]=32)cc1 [near infrared fluorescent material A] | – | – | – | – | Absorption peak [2]: 730 nm; Fluorescence peak [3, 7]: 810 nm; Quantum yield [3, 7]: 24%; Quantum yield [3, 8]: 26%; Absorption peak [4, 8]: 730 nm
– | CCCCCCCCOc1ccc(-c2c3c4n(c(-c5ccc(OCCCCCCCC)cc5)c3c3n2[B-](F)(F)[n+]2c(sc5cc(C(C)(C)C)ccc52)C=3C#N)[B-](F)(F)[n+]2c(sc3cc(C(C)(C)C)ccc32)C=4C#N)cc1 [near infrared fluorescent material B] | not eluted; also recorded: Absence | 758 nm and 833 nm and 756 nm and 834 nm and 753 nm and 754 am nm and 751 nm and 825 nm | 36% and 34% and 39% and 46% | 739 nm and 738 nm and 737 nm and 736 nm | –
– | COc1ccc(-c2cc3c(s2)=CC2=C(C(F)(F)F)c4cc5sc(-c6ccc(OC)cc6)cc5n4[B-](F)(F)[N+]=32)cc1 [near infrared fluorescent material D] | not eluted; also recorded: Absence | 765 nm | 17% | 737 nm | –
not eluted; also recorded: Absence | F[B-]1(F)n2c(cc3sc(-c4cccs4)cc32)C(C(F)(F)F)=C2C=c3sc(-c4cccs4)cc3=[N+]21 [near infrared fluorescent material E] | – | – | – | – | Fluorescence peak [3, 8]: 772 nm; Quantum yield [3, 8]: 11%; Absorption peak [4, 8]: 741 nm
– | CCCCCCCCOc1ccc(-c2c3c4n(c(-c5ccc(OCCCCCCCC)cc5)c3c3n2[B-](F)(F)[n+]2c(ccc5cc(C(C)(C)C)ccc52)C=3C#N)[B-](F)(F)[n+]2c(ccc3cc(C(C)(C)C)ccc32)C=4C#N)cc1 [near infrared fluorescent material F] | not eluted; also recorded: Absence | 774 nm and 870 nm | 35% | 764 nm and 767 nm | –
– | CCCCCCCCOc1ccc(-c2c3c4n(c(-c5ccc(OCCCCCCCC)cc5)c3c3n2[B-](c2ccccc2)(c2ccccc2)[n+]2c(C)cc(C)nc2C=3C#N)[B-](c2ccccc2)(c2ccccc2)[n+]2c(C)cc(C)nc2C=4C#N)cc1 [near infrared fluorescent material G] | not eluted; also recorded: Absence | 778 nm and 870 nm | 35% | 756 nm | –
– | CCCCC(CC)COc1ccc(-c2c3c4n(c(-c5ccc(OCC(CC)CCCC)cc5)c3c3n2[B-](c2ccccc2)(c2ccccc2)[n+]2c(oc5ccc(C(C)(C)C)cc52)C=3C#N)[B-](c2ccccc2)(c2ccccc2)[n+]2c(oc3ccc(C(C)(C)C)cc32)C=4C#N)cc1 (stereo not shown) [near infrared fluorescent material H] | not eluted; also recorded: Absence | 787 nm and 865 nm | 36% | 744 nm | –
